# Measurements reported in US20250263439A1, “HETERODIMERIC PEPTIDE REAGENTS AND METHODS” (REGENTS OF THE UNIVERSITY OF MICHIGAN, priority 2018, published 2025).
# Entries after “also recorded” stand apart in the source; their conditions may differ.
# Assays:
# [1] = system: EGFR and/or ErbB2 in SKBr3 cells; assay: Co-localization of Cy5.5 heterodimer with anti-EGFR and anti-ErbB2 antibodies on SKBr3 cells; type: cell-based, human; conditions: confocal microscopy
# Experimental: Co-localization experiments were performed to validate specific heterodimer binding to EGFR and/or ErbB2 in SKBr3 cells. Cells were cultured to about 70% confluence on glass coverslips, washed with PBS, and incubated with 2% BSA in PBS for 30 min to block non-specific binding. 1 μM of Cy5.5-labeled peptides were added and incubated for 30 min or 1 hour at 4° C. The cells were then washed 3× with PBS, fixed with ice cold 4% paraformaldehyde (PFA) for 10 min, washed with PBS 1×, and then mounted on glass slides with ProLong Gold reagent containing DAPI (Invitrogen).
# For antibody staining, cells were incubated with either anti-EGFR (1:500, #2232S) or anti-ErbB2 (1:500, #29D8) primary antibody from Cell Signaling Inc overnight at 4° C. after fixation, and then washed with PBS 3× and processed with secondary antibody staining. Either goat anti-rabbit IgG (H+L) labeled with Alexa-Fluor 488 (1:1000, #A-11008, Invitrogen) or goat anti-mouse IgG (H&L) labeled with Alexa-Fluor 568 (1:1000, #ab175473, Abcam) was added and incubated for 1 hour at room temperature (RT). The cells were washed with PBS 3×, and mounted onto glass coverslips. Confocal fluorescence images were collected using DAPI, AF488, AF568 and Cy5.5 filter sets. Fluorescence intensities from 3 independent images were quantified using custom Matlab (Mathworks) software.
# [2] = system: OE33 human esophageal adenocarcinoma cells; assay: Confocal microscopy binding of heterodimer versus monomers to OE33 cells; type: cell-based
# OE33 cells = assay: Apparent dissociation constant by flow cytometry with OE33 cells; type: binding, human
# Experimental: The apparent dissociation constant (Kd) was measured to assess binding affinity of the heterodimer to OE33 cells. The heterodimer was serially diluted in PBS at concentrations of about 0, 10, 25, 50, 100, and 200 nM with about […] at 4° C. for one hour and washed with cold PBS. The mean fluorescence intensities were measured with flow cytometry (BD LSRII, BD Biosciences). The equilibrium dissociation constant Kd 1/Ka was calculated with a least-squares fit of the data to the nonlinear equation I=(I0+ImaxKa[X])/(I0+Ka[X]). I0 and Imax are the initial and maximum fluorescence intensities, corresponding to no peptide and at saturation, respectively, and [X] represents the concentration of bound peptide. Prism 5.0 software (Graphpad Inc.) was used to calculate Kd and Ka.
# [3] = system: Barrett's neoplasia (HGD and EAC); assay: Confocal microscopy of human esophageal specimens ex vivo
# Experimental: The fluorescence intensities from the human esophageal specimens were fit according to 4 histological classifications, including squamous (SQ), Barrett's esophagus (BE), high-grade dysplasia (HGD), and esophageal adenocarcinoma (EAC), and used a one-way ANOVA and used Tukey's multiple comparisons. Co-localization of peptide and antibody binding was evaluated using Pearson's correlation coefficient.
# Using confocal microscopy, specific heterodimer binding to Barrett's neoplasia was validated on human specimens ex vivo. Formalin-fixed, paraffin-embedded (FFPE) specimens of human esophagus were obtained from the archived tissue bank in the Department of Pathology, University of Michigan. The tissues were cut into […], deparaffinized, and rehydrated using standard conditions. Two-step acidic and protease-based antigen retrieval was performed. The sections were blocked with protein serum for 10 min at RT followed by rinsing with PBS, and then incubated with the heterodimer (0.5 μM) for ten min in dark conditions at RT. The sections were then washed for three min 3× with PBS and further incubated sequentially with 1:200 dilution of EGFR monoclonal antibody (H11, #MA5-13070, Invitrogen) and 1:500 goat anti-mouse IgG (H+L) AF-568-labeled secondary antibody (#A-11004, Thermo Fisher Scientific), 1:500 dilution of ErbB2 primary antibody (#29D8, rabbit monoclonal antibody #2165S, Cell Signaling Inc), and 1:1000 goat anti-rabbit IgG (H+L) AF-488-labeled secondary antibody (#A11008, Life Technologies Corp). Each antibody was incubated for 1 hour at RT. Sections were washed with TBST 3× and mounted with Prolong Gold reagent containing DAPI (Invitrogen) using #1 cover glass ([…]). Confocal fluorescence microscopy was performed using DAPI, AF488, AF568 and Cy5.5 filter sets. Image quantification was performed by placing 3 boxes with dimensions of 20×20 μm^2 completely within cells found in the epithelium. Mean fluorescence intensities were measured using custom Matlab software (Mathworks). Regions of saturated intensities were avoided.
# [4] = system: EGFR or ErbB2 in SKBr3 cells; assay: siRNA knockdown of EGFR or ErbB2 in SKBr3 cells, confocal binding; type: cell-based, human
# Experimental: siRNA knockdown experiments were performed to further validate specific heterodimer binding to either EGFR or ErbB2 in vitro. Separate siRNA knockdown of either EGFR or ErbB2 expression in SkBr3 cells was carried out to validate specific peptide binding. ON-TARGET plus human EGFR siRNA (#L-003114-00-0005), ONTARGET plus human ErbB2 siRNA (#L-003126-00-0005) and ON-TARGET plus non-targeting pool (#D-001810-10-05) were used.
# siRNA at 5 μM concentration in 5 μL was transfected into SKBr3 cells using DharmaFECT transfection reagents (Thermo Scientific). Briefly, cells were seeded in 6-well culture plates at 30% confluence in McCoy's 5 Å media supplemented with 10% FBS without antibiotics. The cells were transfected with siRNA at a final concentration of […] using oligofectamine (Thermo Scientific). Knockdown of either EGFR or ErbB2 was confirmed by Western blot.
substance,measurement,setting,value
"heterodimer of QRHKPRE (SEQ ID NO: 1) and KSPNPRF (SEQ ID NO: 2) with E3 (triethyleneglycol) linker, Cy5.5 label [QRH*-KSP*-E3-Cy5.5]",binding to surface of SKBr3 cells,[1],bind strongly
same,greater fluorescence intensity compared with either monomer alone,[2],3 fold
same,improved binding affinity compared with either monomer alone,OE33 cells,2 fold
same,Kd,"OE33 cells; flow cytometry, 4° C.",23 nM
same,staining of high-grade dysplasia (HGD) and esophageal adenocarcinoma (EAC),[3]; human specimens ex vivo,increased signal; also recorded: increased staining intensity
same,staining of squamous (SQ) and Barrett's esophagus (BE),[3]; human specimens ex vivo,Minimal fluorescence signal; also recorded: minimal staining
same,mean fluorescence intensity of neoplasia compared with BE and SQ,"[3]; n=31, 8, 23, and 12 specimens of SQ, BE, HGD, EAC",significantly greater mean fluorescence intensity
same,binding to siCL (control) versus siEGFR (knockdown) SKBr3 cells,"[4]; confocal microscopy, similar results for siErbB2",Less signal; also recorded: significantly greater binding
same,binding to surface of siCL (control) SKBr3 cells,[4]; non-targeting siRNA,strong binding
same,mean fluorescence intensity in EGFR or ErbB2 knockdown cells,"[4]; quantified, versus control SKBr3 cells",significant reduction
